Converted amounts (≈) assume the structure as drawn. The source made the active and inactive calls. The rule behind the calls is not given here.
Columns and labels:
Lipopolysaccharide (LPS) = assay: Displacement of BODIPY-TR-cadaverine from Klebsiella pneumoniae BAA 2473 lipopolysaccharide (LPS) assessed as increase in fluorescence intensity at 1.56 uM by fluorescence spectrophotometric analysis; assay type: subcellular
[1] = Toxicity in C57BL/6 mouse assessed as effect on BUN level upto 10 mg/kg, iv measured for 7 days; assay type: organism-based; details: in vivo, 168 h, time 7 day
Klebsiella pneumoniae [2] = assay: Additive antibacterial activity against Klebsiella pneumoniae BAA 2473 assessed as fractional inhibitory concentration index in presence of meropenem by checkerboard assay; assay type: functional
Klebsiella pneumoniae [3] = assay: Antibacterial activity against Klebsiella pneumoniae BAA 2473 assessed as inhibition of bacterial growth in presence of ciprofloxacin; assay type: functional
Klebsiella pneumoniae [4] = assay: Antibacterial activity against Klebsiella pneumoniae BAA 2473 assessed as doxycycline MIC; assay type: functional
Klebsiella pneumoniae [5] = assay: Synergistic antibacterial activity against Klebsiella pneumoniae BAA 2473 assessed as fractional inhibitory concentration index in presence of ciprofloxacin by checkerboard assay; assay type: functional
Klebsiella pneumoniae [6] = assay: Synergistic antibacterial activity against Klebsiella pneumoniae BAA 2473 assessed as fractional inhibitory concentration index in presence of doxycycline by checkerboard assay; assay type: functional
Klebsiella oxytoca = assay: Antibacterial activity against Klebsiella oxytoca 13985 assessed as inhibition of bacterial growth incubated for 16 to 20 hrs; assay type: functional; details: time 16-20 hrs
[7] = Toxicity in C57BL/6 mouse assessed as mortality at 5 to 10 mg/kg, iv measured for 7 days; assay type: organism-based; details: in vivo, 168 h, dose 5-10 mg/kg, time 7 day
Klebsiella pneumoniae [8] = assay: Antibacterial activity against Klebsiella pneumoniae BAA 2473 assessed as inhibition of bacterial growth in presence of meropenem; assay type: functional
Pseudomonas aeruginosa = assay: Bactericidal activity against Pseudomonas aeruginosa 19660 assessed as inhibition of bacterial growth incubated for 16 to 20 hrs; assay type: functional; details: time 16-20 hrs
Cell membrane = assay: Induction of outer cell membrane permeabilization in Klebsiella pneumoniae BAA 2473 assessed as increase in fluorescence intensity by PI staining based analysis; assay type: cell membranes
[9] = Toxicity in C57BL/6 mouse assessed as survival rate at 12.5 to 15 mg/kg, iv measured for 7 days; assay type: organism-based; details: in vivo, dose 12.5-15 mg/kg, time 7 day
[10] = Toxicity in C57BL/6 mouse assessed as increase in creatinine level upto 12.5 mg/kg, iv measured for 7 days; assay type: organism-based; details: in vivo, 168 h, time 7 day
Klebsiella pneumoniae [11] = assay: Antibacterial activity against Klebsiella pneumoniae BAA 2473 assessed as inhibition of bacterial growth in presence of doxycycline; assay type: functional
Klebsiella pneumoniae [12] = assay: Antibacterial activity against Klebsiella pneumoniae BAA 2473 assessed as meropenem MIC; assay type: functional
[13] = Toxicity in C57BL/6 mouse assessed as change in body weight at 15 mg/kg, iv measured for 7 days; assay type: organism-based; details: in vivo, 168 h, time 7 day
Klebsiella pneumoniae [14] = assay: Antimicrobial activity against drug-resistant Klebsiella pneumoniae BAA 2473 infected in C57BL/6 mouse assessed as reduction in bacterial load at 5 mg/kg, po administered for 2 hrs and measured at 24 hrs; assay type: functional, organism-based; details: time 26.0 hrs
[15] = Toxicity in C57BL/6 mouse assessed as mortality at 20 mg/kg, iv measured for 2 days; assay type: organism-based; details: in vivo, time 2 day
Erythrocyte [16] = assay: Hemolytic activity in human Red blood cells assessed as hemolysis at 200 uM incubated for 1 hrs; assay type: toxicity, cell-based
Klebsiella pneumoniae [17] = assay: Antibacterial activity against Klebsiella pneumoniae BAA 2473 assessed as bacterial eradication measured at 10 hrs; assay type: functional, organism-based
Klebsiella pneumoniae [18] = assay: Antibacterial activity against Klebsiella pneumoniae TL 297 assessed as inhibition of bacterial growth incubated for 16 to 20 hrs; assay type: functional; details: time 16-20 hrs
[19] = Toxicity in C57BL/6 mouse assessed as effect on GOT level in liver upto 7.5 mg/kg, iv measured for 7 days; assay type: organism-based; details: in vivo, 168 h, time 7 day
Klebsiella pneumoniae [20] = assay: Antimicrobial activity against drug-resistant Klebsiella pneumoniae BAA 2473 infected in C57BL/6 mouse assessed as fold reduction in bacterial load at 5 mg/kg, po administered for 2 hrs and measured at 24 hrs; assay type: functional
Staphylococcus aureus = assay: Bactericidal activity against Staphylococcus aureus 10780 assessed as inhibition of bacterial growth incubated for 16 to 20 hrs; assay type: functional; details: time 16-20 hrs
[21] = Toxicity in C57BL/6 mouse assessed as change in GPT level in liver at 15 mg/kg, iv measured for 7 days; assay type: organism-based; details: in vivo, 168 h, time 7 day
Klebsiella pneumoniae [22] = assay: Antibacterial activity against Klebsiella pneumoniae BAA 2473 assessed as bacterial eradication measured at 2 hrs; assay type: functional
Erythrocyte [23] = assay: Hemolytic activity in human Red blood cells assessed as hemolysis at 3.13 uM incubated for 1 hrs; assay type: toxicity, cell-based

For `CC(C)C[C@H](NC(=O)[C@H](CCCCN)NC(=O)[C@@H](CCCCN)NC(=O)[C@H](CC(C)C)NC(=O)[C@@H](N)Cc1ccccc1)C(=O)N[C@H](CC(C)C)C(=O)N[C@@H](CCCCN)C(=O)N[C@@H](C)C(=O)N[C@H](CC(C)C)C(=O)N[C@@H](Cc1ccccc1)C(=O)N[C@@H](CO)C(=O)N[C@H](C)C(=O)N1CCC[C@H]1C(=O)N[C@@H](CCCCN)C(=O)N[C@H](C)C(=O)N[C@@H](CC(C)C)C(=O)N[C@@H](CCCCN)C(=O)N[C@H](CCCNC(=N)N)C(=O)N[C@@H](CC(C)C)C(=O)N[C@@H](CC(C)C)C(=O)N[C@H](CCCNC(=N)N)C(=O)N[C@@H](CCCNC(=N)N)C(=O)N[C@@H](CCCNC(=N)N)C(=O)N[C@H](CCCNC(=N)N)C(=O)N[C@@H](CCCNC(=N)N)C(=O)O`, the Activity (Lipopolysaccharide (LPS)) was “Active”, the Activity [1] was “Non-Toxic” and the “fractional inhibitory concentration index (FICI)” value (Klebsiella pneumoniae [2]) was 1. For the same compound, the MIC (Klebsiella pneumoniae [3]) was 0.097 µM, the MIC (Klebsiella pneumoniae [4]) was 6.25 µM and the “fractional inhibitory concentration index (FICI)” value (Klebsiella pneumoniae [5]) was 1.003. The “fractional inhibitory concentration index (FICI)” value (Klebsiella pneumoniae [6]) was 0.375, the MIC (Klebsiella oxytoca) was 1.56 µM (≈ 4.8 µg/mL) and the Activity [7] was “Non-Toxic”. The MIC (Klebsiella pneumoniae [8]) was 0.78 µM, the MBC (Pseudomonas aeruginosa) was 3.13 µM (≈ 9.64 µg/mL) and the Activity (Cell membrane) was “Active”. The survival at 168 h [9] was 80%, the Activity [10] was “Non-Toxic” and the MIC (Klebsiella pneumoniae [11]) was 0.39 µM. The MIC (Klebsiella pneumoniae [12]) was 3.12 µM, the Activity [13] was “Non-Toxic” and the Activity (Klebsiella pneumoniae [14]) was “inactive”. For the same compound, the mortality at 48 h [15] was 100%, the Activity (Erythrocyte [16]) was “Non-Toxic” and the Activity (Klebsiella pneumoniae [17]) was “Active”. The MIC (Klebsiella pneumoniae [18]) was 12.5 µM (≈ 38.5 µg/mL) and the Activity [19] was “Non-Toxic”.

In the case of `CC(C)C[C@H](NC(=O)[C@@H](C)NC(=O)[C@@H](CCCCN)NC(=O)[C@H](CC(C)C)NC(=O)[C@@H](CC(C)C)NC(=O)[C@@H](CCCCN)NC(=O)[C@H](CCCCN)NC(=O)[C@@H](CC(C)C)NC(=O)[C@H](N)Cc1ccccc1)C(=O)N[C@H](Cc1ccccc1)C(=O)N[C@H](CO)C(=O)N[C@@H](C)C(=O)N1CCC[C@@H]1C(=O)N[C@H](CCCCN)C(=O)N[C@@H](C)C(=O)N[C@H](CC(C)C)C(=O)N[C@H](CCCCN)C(=O)N[C@@H](CCCNC(=N)N)C(=O)N[C@H](CC(C)C)C(=O)N[C@H](CC(C)C)C(=O)N[C@@H](CCCNC(=N)N)C(=O)N[C@H](CCCNC(=N)N)C(=O)N[C@H](CCCNC(=N)N)C(=O)N[C@@H](CCCNC(=N)N)C(=O)N[C@@H](CCCNC(=N)N)C(=O)O`, the Activity (Lipopolysaccharide (LPS)) is reported as “Active”, the “fractional inhibitory concentration index (FICI)” value (Klebsiella pneumoniae [2]) is reported as 1.003 and the MIC (Klebsiella pneumoniae [3]) is reported as 1.56 µM. The MIC (Klebsiella pneumoniae [4]) was 1.56 µM, the “fractional inhibitory concentration index (FICI)” value (Klebsiella pneumoniae [5]) was 0.562 and the “fractional inhibitory concentration index (FICI)” value (Klebsiella pneumoniae [6]) was 0.5. The MIC (Klebsiella oxytoca) was 3.13 µM (≈ 9.64 µg/mL), the MIC (Klebsiella pneumoniae [8]) was 0.78 µM and the “fold change (FC)” value (Klebsiella pneumoniae [20]) was about 10. The MBC (Staphylococcus aureus) was 6.25 µM (≈ 19.2 µg/mL), the MBC (Pseudomonas aeruginosa) was 3.13 µM (≈ 9.64 µg/mL) and the Activity (Cell membrane) was “Active”. For the same compound, the MIC (Klebsiella pneumoniae [11]) was 0.39 µM, the MIC (Klebsiella pneumoniae [12]) was 400 µM and the Activity (Klebsiella pneumoniae [14]) was “Active”. For the same compound, the Activity [21] was “Non-Toxic”, the Activity (Erythrocyte [16]) was “Non-Toxic” and the Activity (Klebsiella pneumoniae [17]) was “Active”. For the same compound, the MIC (Klebsiella pneumoniae [18]) was 6.25 µM (≈ 19.2 µg/mL).

For H-FIHHIIGGLFSAGKAIHRLIRRRRR-OH, the MBC (Staphylococcus aureus) was 0.78 µM, the Activity (Klebsiella pneumoniae [22]) was 100% and the Activity (Erythrocyte [23]) was “Non-Toxic”.
